Source: US9493430B2, “Biaryl- or heterocyclic biaryl-substituted cyclohexene derivative compounds as CETP inhibitors” (CHONG KUN DANG PHARMACEUTICAL CORP., priority 2013, dated 2016)

How the values were obtained:
patients [1] = details: human, in vivo; cited from earlier work
[2] = test system: H295R cell line (human adrenal cortical tumor cells); type: cell-based; details: 24 hours, 100 nM of torcetrapib, 1 μM of test compounds
Method: Evaluation of the Ability of CETP Inhibitor to Secrete Blood Pressure-Hormone
Based on this, the secretion of blood pressure-increasing hormones from human adrenal cortical tumor cells was evaluated. The cell line H295R was purchased from ATCC (CRL-2128) and cultured in DMEM/F-12 medium (1% ITS, 2.5% Nu-serum). The H295R cell line was dispensed into a 24-well plate at a cell density of 1×10^5/well, and stabilized for 24 hours, after which the cells were starved for 24 hours using serum-free DMEM/F-12. Then, the cells were treated with each of 100 nM of torcetrapib and 1 μM of test compounds 554, 557, 574, 584, 586, 593, 618, 643, 650, 661, 681 and 695. At 24 hours after treatment with the drug or the compound, the supernatant was taken and stored at −20° C. The supernatant stored at −20° C. was thawed, and the amounts of aldosterone and cortisol secreted from the cells were measured using an aldosterone EIA kit (Cayman-10004377) and cortisol EIA kit (Cayman-500360).
2. Statistical Processing
(§1) All test results were expressed as Mean±SEM, and to evaluate the effect of each test group, each test group was compared with the control group using one-way ANOVA test (Dunnett's test, p<0.001).

patients [3] = details: cited from earlier work
[4] = test system: human adrenal cortical tumor cells; details: cited from earlier work
CETP = CETP (Homo sapiens (Human), UniProt P11597); test: Test for inhibition of cholesteryl ester transfer (in vitro); type: biochemical; details: human plasma as CETP source, LDL from healthy persons as acceptor, rHDL-agarose donor, 37° C.
Source text: Test for Inhibition of Cholesteryl Ester Transfer (In Vitro)
1. Construction of Cholesteryl Ester Donor
To construct a cholesteryl ester donor to be used in the test, radiolabeled recombinant HDL containing […] (GE healthcare, TRK886, 3.5 μCi/mg of apoA-1) and apoA-1 was synthesized. Then, rHDL-agarose having the recombinant HDL immobilized thereon by CNBr-activated Sepharose 4B (Amersham Biosciences, Sweden) resin was used in the test.
2. Cholesteryl Ester Transfer Test
As a protein source for cholesteryl ester transfer, plasma from healthy persons was used, and as a cholesteryl ester receptor, LDL from healthy persons was used. Samples were treated with each test compound to final concentrations of 16, 80, 400, 2000 and 10000 nM and analyzed in duplicate. For the cholesteryl ester transfer test, 20 μl of plasma, 50 μl of LDL (0.25 mg/ml) and 50 μl of rHDL-agarose (0.25 mg/ml) were added, and a solution containing a test compound was added, followed by reaction at 37° C. Then, centrifugation was performed at 4° C. for 3 minutes to stop the reaction, and 150 μl of the supernatant was taken and transferred to a 96-well plate for radioactivity measurement, and the radioactivity of the plate was measured with a beta-ray detector.
(§2) 3. Statistical Processing
The ratio of [^3H]-cholesteryl oleate from HDL to LDL was calculated and used as a result value, and from the result value, IC50 value was calculated using GraphPad Prism 5.0.

golden Syrian hamsters = test: Test for anti-hyperlipidemic effect in hamsters (in vivo); details: Mesocricetus auratus, po, 3 mg/kg orally for 5 days, blood 4 hours after final administration, vs control; for inhibition in vivo at 3 mg/kg: read-out: Decrease in LDL-c (%); for change in vivo at 3 mg/kg: read-out: Increase in HDL-c (%)
Source text: Test for Anti-Hyperlipidemic Effect in Hamsters (In Vivo)
In this test, 8-week-old male golden Syrian hamsters were used. The breeding room was maintained at constant temperature and constant humidity and a 12-hr light/12-hr dark cycle. The animals were allowed access to feed and water ad libitum.
2. Anti-Hyperlipidemic Test in Hamsters
The test animals were acclimated for 1 week before use in the test. The test animals were divided according to body weight into several groups, each consisting of 5-8 animals, and were then administered orally with a dose of 3 mg/kg. A solvent control and a CETP inhibitor were dissolved in imwitor 742: tween 80 (1:1) and administered orally for 5 days, and at 4 hours after the final administration, blood was collected from the heart. The collected blood was centrifuged at 3000 rpm for 15 minutes, and the separated serum was measured for HDL-Cholesterol (Biosystem) and LDL-Cholesterol (Biosystem) using a biochemical analysis instrument (ILab 300 plus, Instrumentation Laboratory).
as §2, §1

patients [5] = details: human, in vivo; cited from earlier work; remark: listed apart in the source
patients [6] = details: patients administered with Anacetrapib; cited from earlier work

CETP, sequence (P11597 18-493): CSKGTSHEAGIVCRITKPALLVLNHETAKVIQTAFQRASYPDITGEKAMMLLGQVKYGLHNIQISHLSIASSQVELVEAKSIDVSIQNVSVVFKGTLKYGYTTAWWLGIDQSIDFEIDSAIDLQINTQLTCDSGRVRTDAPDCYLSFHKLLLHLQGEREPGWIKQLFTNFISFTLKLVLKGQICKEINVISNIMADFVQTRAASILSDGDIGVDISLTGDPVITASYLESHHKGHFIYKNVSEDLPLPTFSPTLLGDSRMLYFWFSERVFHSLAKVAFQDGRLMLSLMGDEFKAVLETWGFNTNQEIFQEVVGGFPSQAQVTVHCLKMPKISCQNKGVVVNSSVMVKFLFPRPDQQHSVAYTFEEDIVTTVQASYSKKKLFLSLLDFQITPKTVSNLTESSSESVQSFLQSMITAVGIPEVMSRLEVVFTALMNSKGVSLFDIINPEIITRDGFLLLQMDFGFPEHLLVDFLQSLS

Which results are given for `CCC(CC)CC1(C(=O)Nc2ccccc2SC(=O)C(C)C)CCCCC1` [Dalcetrapib]?
effects (efficacy) (patients [1]): insufficient effects; side effects (patients [1]): does not have the side effects of Torcetrapib

Which secretion of aldosterone [2] does the source give for `CCOC(=O)N1c2ccc(C(F)(F)F)cc2[C@@H](N(Cc2cc(C(F)(F)F)cc(C(F)(F)F)c2)C(=O)OC)C[C@H]1CC` [torcetrapib] here?
Its secretion of aldosterone is “increased the secretion of the two hormones”.

And the secretion of cortisol [2]?
Its secretion of cortisol is “increased the secretion of the two hormones”.

And the “morbidity rate and mortality rate” value (patients [3]; combination of torcetrapib and atorvastatin compared to atorvastatin alone)?
The value was “increase”.

And the blood pressure (patients [3]; human, in vivo)?
Its blood pressure is “causes an increase in blood pressure”.

What about the mortality rate (patients [3]; human, in vivo) of the same compound?
Its mortality rate is “an increase in mortality rate”.

And the secretion of aldosterone [4]?
The secretion of aldosterone was “increased the secretion of aldosterone and cortisol”.

And the secretion of cortisol [4]?
The secretion of cortisol was “increased the secretion of aldosterone and cortisol”.

Which results are given for `COc1ncc(-c2ccc(C(=O)O)cc2Cl)cc1C1=C(CN2C(=O)O[C@H](c3cc(C(F)(F)F)cc(C(F)(F)F)c3)[C@@H]2C)CC(C)(C)CC1` [Compound 584, 4-(3-(2-(((4S,5R)-5-(3,5-bis(trifluoromethyl)phenyl)-4-methyl-2-oxooxazolidin-3-yl)methyl)-4,4-dimethylcyclohex-1-enyl)-2-methoxypyridin-5-yl)-3-chlorobenzoic acid]?
IC50 (CETP): 5.3 nM; inhibition in vivo at 3 mg/kg (golden Syrian hamsters): 40%; change in vivo at 3 mg/kg (golden Syrian hamsters): 46%

Which IC50 (CETP) does the source give for `C[C@H]1[C@@H](c2cc(C(F)(F)F)cc(C(F)(F)F)c2)OC(=O)N1CC1=C(c2cc(F)cc(-c3ccc(C(=O)O)cc3C(F)(F)F)c2)CCC(C)(C)C1` [Compound 668, 3′-(2-(((4S,5R)-5-(3,5-bis(trifluoromethyl)phenyl)-4-methyl-2-oxooxazolidin-3-yl)methyl)-4,4-dimethylcyclohex-1-enyl)-5′-fluoro-2-(trifluoromethyl)biphenyl-4-carboxylic acid] here?
Its IC50 is 5 nM.

And the inhibition in vivo at 3 mg/kg (golden Syrian hamsters)?
The inhibition in vivo at 3 mg/kg was 16%.

What about the change in vivo at 3 mg/kg (golden Syrian hamsters) of the same compound?
Its change in vivo at 3 mg/kg is 44%.

Which results are given for `COc1cc(F)c(-c2ccc(C(=O)O)cc2C)cc1C1=C(CN2C(=O)O[C@H](c3cc(C(F)(F)F)cc(C(F)(F)F)c3)[C@@H]2C)CC(C)(C)CC1` [Compound 574, 5′-(2-(((4S,5R)-5-(3,5-bis(trifluoromethyl)phenyl)-4-methyl-2-oxooxazolidin-3-yl)methyl)-4,4-dimethylcyclohex-1-enyl)-2′-fluoro-4′-methoxy-2-methylbiphenyl-4-carboxylic acid]?
IC50 (CETP): 3.9 nM; inhibition in vivo at 3 mg/kg (golden Syrian hamsters): 36%; change in vivo at 3 mg/kg (golden Syrian hamsters): 41%

What does the source list for `Cc1cc(C)c2c(c1)[C@@H](N(Cc1cc(C(F)(F)F)cc(C(F)(F)F)c1)c1nnn(C)n1)CCCN2C[C@H]1CC[C@H](C(=O)O)CC1` [Evacetrapib]?
HDL-c levels (patients [5]): increases HDL-c levels in a dose-dependent manner; side effects such as blood pressure elevation (patients [5]): does not cause side effects such blood pressure elevation

Which results are given for `COc1ccc(-c2ccc(C(=O)O)cc2C(F)(F)F)cc1C1=C(CN2C(=O)O[C@H](c3cc(C(F)(F)F)cc(C(F)(F)F)c3)[C@@H]2C)CC(C)(C)CC1` [Compound 618, 3′-(2-(((4S,5R)-5-(3,5-bis(trifluoromethyl)phenyl)-4-methyl-2-oxooxazolidin-3-yl)methyl)-4,4-dimethylcyclohex-1-enyl)-4′-methoxy-2-(trifluoromethyl)biphenyl-4-carboxylic acid]?
IC50 (CETP): 1.6 nM; inhibition in vivo at 3 mg/kg (golden Syrian hamsters): 26%; change in vivo at 3 mg/kg (golden Syrian hamsters): 65%

For `COc1ccc(-c2ccc(C(=O)O)cc2C)cc1C1=C(CN2C(=O)O[C@H](c3cc(C(F)(F)F)cc(C(F)(F)F)c3)[C@@H]2C)CC(C)(C)CC1` [Compound 554, 3′-(2-(((4S,5R)-5-(3,5-bis(trifluoromethyl)phenyl)-4-methyl-2-oxooxazolidin-3-yl)methyl)-4,4-dimethylcyclohex-1-enyl)-4′-methoxy-2-methylbiphenyl-4-carboxylic acid], which IC50 (CETP) is on record?
The IC50 was 5.8 nM.

What about the inhibition in vivo at 3 mg/kg (golden Syrian hamsters) of the same compound?
The inhibition in vivo at 3 mg/kg was 42%.

And the change in vivo at 3 mg/kg (golden Syrian hamsters)?
The change in vivo at 3 mg/kg was 72%.

What does the source list for `COc1cc(F)c(-c2ccc(C(=O)O)cc2Cl)cc1C1=C(CN2C(=O)O[C@H](c3cc(C(F)(F)F)cc(C(F)(F)F)c3)[C@@H]2C)CC(C)(C)CC1` [Compound 631, 5′-(2-(((4S,5R)-5-(3,5-bis(trifluoromethyl)phenyl)-4-methyl-2-oxooxazolidin-3-yl)methyl)-4,4-dimethylcyclohex-1-enyl)-2-chloro-2′-fluoro-4′-methoxybiphenyl-4-carboxylic acid]?
IC50 (CETP): 1.9 nM; inhibition in vivo at 3 mg/kg (golden Syrian hamsters): 30%; change in vivo at 3 mg/kg (golden Syrian hamsters): 56%

Which HDL-c level increase (patients [6]) does the source give for `COc1cc(F)c(C(C)C)cc1-c1ccc(C(F)(F)F)cc1CN1C(=O)O[C@H](c2cc(C(F)(F)F)cc(C(F)(F)F)c2)[C@@H]1C` [Anacetrapib] here?
The HDL-c level increase was 138%.

What about the LDL-c level decrease (patients [6]) of the same compound?
Its LDL-c level decrease is 40%.
